# Laboratory results as given in paper PMC7687371, “Quantitative in Vitro to in Vivo Extrapolation (QIVIVE) for Predicting Reduced Anogenital Distance Produced by Anti-Androgenic Pesticides in a Rodent Model for Male Reproductive Disorders” (Environmental Health Perspectives, 2020).
# Marks after values point to notes of the source that are not given here.
# Assays:
# pregnant dams and pups = conditions: ref EFSA's Draft Assessment Reports (DARs); cited from earlier work
# [1] = PBK model first-order kinetic parameters fitted to in vivo ADME data; set-up: species or system rat; conditions: PBK model parameter
# [2] = set-up: method as in U.S. EPA 2012; conditions: EPI Suite, experimental preferred over modeled; ref U.S. EPA 2012; cited from earlier work
# NCI-H295R cells = test: H295R steroidogenesis assay; format: cell-based, human
# Procedure, shortened: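 Human adrenocortical NCI-H295R cells exposed 48 h to compounds in 2-fold dilutions from 0.8 to 50 μM (0.1% DMSO), three independent experiments. Ten steroid hormones in medium measured by LC-MS/MS and normalized to solvent controls; viability checked by MTT.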
# [3] = ref Wetmore et al. (2012); cited from earlier work
# [4] = set-up: method as in EFSA 2009; conditions: 24 h after dosing; ref EFSA 2009; cited from earlier work
# [5] = Fetal chemical exposure analysis (LC-QTOF) at GD21; format: in vivo, rat; conditions: male, Sprague-Dawley, rat, in vivo, 40 mg/kg/day
# Procedure, shortened: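 Rat dams killed at GD21; pooled fetal trunk plasma (by sex, per litter, ~90 min post-dose) and amniotic fluid stored at −80 °C. Samples extracted with acetonitrile (C-18 cleanup) and analysed by positive-ESI LC-QTOF; quantified from (M+H)+ extracted-ion chromatograms ±0.005 Da against matrix-matched plasma standards.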
# [6] = set-up: method as in Sierra-Santoyo et al. (2008); conditions: conversion of parent compound into active metabolite; ref Sierra-Santoyo et al. (2008); cited from earlier work
# androgen receptor (AR) = target: androgen receptor (AR); set-up: method as in Vinggaard et al. (2008); conditions: ref Vinggaard et al. (2008); read-out: AR antagonism (IC50); cited from earlier work
smiles,measurement,setting,value
"C=CCOC(Cn1ccnc1)c1ccc(Cl)cc1Cl (centres unmarked) [Imazalil, imazalil]",Critical toxicity,pregnant dams and pups,"Increased duration of gestation , effects on pups/fetuses related to maternal toxicity"
same,LOAEL (mg/kg bw),pregnant dams and pups,80 mg/kg bw
same,NOAEL (mg/kg bw),pregnant dams and pups,20 mg/kg bw
same,Fecal excretion rate from gut (L/h) KFeces,[1],0.5 L/h
same,Portal GI absorption rate into liver (L/h) KAS,[1],1 L/h
same,Urine excretion rate from kidney (L/h) KUrine,[1],0.53 L/h
same,log Kow,[2],3.82
same,"Effect on androgen (steroid) synthesis, in words",NCI-H295R cells; H295R steroidogenesis assay,inhibited testosterone synthesis
same,IC20,"NCI-H295R cells; Homo sapiens, NCI-H295R, read-out: Testosterone inhibition (IC20 µM)",500 nM
same,"Androstendione, LOEC",NCI-H295R cells; multiple contrast tests,0.8 µM
same,"Corticosterone, LOEC",NCI-H295R cells; multiple contrast tests,0.8 µM
same,"Cortisol, LOEC",NCI-H295R cells; multiple contrast tests,0.8 µM
same,"DHEA, LOEC",NCI-H295R cells; multiple contrast tests,0.8 µM
same,"Estradiol, LOEC",NCI-H295R cells; multiple contrast tests,0.8 µM
same,"OH-Progesterone, LOEC",NCI-H295R cells; multiple contrast tests,0.8 µM
same,"Progesterone, LOEC",NCI-H295R cells; multiple contrast tests,0.8 µM
same,"Testosterone, lowest observed effect concentration (LOEC)",NCI-H295R cells; multiple contrast tests,0.8 µM
same,Unbound plasma fraction (%),[3],4.8^g %
same,Number of metabolites discovered in urine and feces,[4],at least 25
"C=CC(C)(OC(=O)Nc1cc(Cl)cc(Cl)c1)C(=O)O (centres unmarked) [M1, 2-[[(3,5-dichlorophenyl)-carbamoyl]oxy]-2-methyl-3-butenoic acid]",Measured concentration in male fetuses,[5],18.0 µM
same,Urine excretion rate from kidney (L/h) KUrine,[1],0.2 L/h
same,"Metabolism rate in liver, Metabolite (L/h)",[6],2.8^h L/h
same,log Kow,[2],3.52
same,IC50,androgen receptor (AR),2000 nM
"C=CC(C)(O)C(=O)Nc1cc(Cl)cc(Cl)c1 (centres unmarked) [M2, 3′,5′-dichloro-2-hydroxy-2-methylbut-3-enanilide]",Measured concentration in male fetuses,[5],3.4 µM
same,Urine excretion rate from kidney (L/h) KUrine,[1],0.2 L/h
same,"Metabolism rate in liver, Metabolite (L/h)",[6],0.9^h L/h
same,log Kow,[2],2.95
same,IC50,androgen receptor (AR),200 nM
